Source: EP1220852B1, “SUBSTITUTED DIAZEPANS” (Novartis AG, priority 1999, dated 2001)

Experiments:
[1] = tested on: allergic contact dermatitis; assay: Allergic contact dermatitis (ACD), oxazolone-induced, pinnal weight; type: in vivo, female NMRI mice; conditions: pinnal weight 24 h after challenge
Method: ii) Allergic Contact Dermatitis (ACD)
Groups of 8 female NMRI mice are sensitized on the shaved abdomen with 50 µl of oxazolone (Sigma, 2% in acetone) and challenged with 10 µl of 0.2 or 2.0% oxazolone on the inner surface of the right ear 7 days later. The low concentration of oxazolone for induction of the elicitation phase is used for testing compounds on […] activity whereas the high concentration is applied for […] testing. The unchallenged left ears serve as normal controls and dermatitis is evaluated from the individual differences in pinnal weight, which is taken as a measure of increase in inflammatory swelling 24 h after the challenge. Dermatitis is evaluated in test- and for comparison in control groups. The test groups are treated with the test compounds either orally (twice, 2 h and immediately before challenge), subcutaneously (immediately before challenge) or topically (30 min after challenge at the site of elicitation of the ACD); the controls are treated similarly with the vehicles alone. […] The data of the test- and the vehicle-treated control groups are statistically analysed by ANOVA followed by Dunnet T-test (normal distribution or data) or by H and U-test, respectively. […]

LFA-1/ICAM-1 = target: T1, LFA-1/ICAM-1 (Homo sapiens, UniProt P05107+P20701); assay: Cell free assay: binding of soluble human ICAM-1 to immobilized human LFA-1
T1 construct: endogenous in cells; host or cells: LFA-1: endogenous protein purified from JY cells (human lymphoblastoid B cell line); ICAM-1-Cκ fusion: made in house with the baculovirus system
T1 sequence (P20701 26-1170): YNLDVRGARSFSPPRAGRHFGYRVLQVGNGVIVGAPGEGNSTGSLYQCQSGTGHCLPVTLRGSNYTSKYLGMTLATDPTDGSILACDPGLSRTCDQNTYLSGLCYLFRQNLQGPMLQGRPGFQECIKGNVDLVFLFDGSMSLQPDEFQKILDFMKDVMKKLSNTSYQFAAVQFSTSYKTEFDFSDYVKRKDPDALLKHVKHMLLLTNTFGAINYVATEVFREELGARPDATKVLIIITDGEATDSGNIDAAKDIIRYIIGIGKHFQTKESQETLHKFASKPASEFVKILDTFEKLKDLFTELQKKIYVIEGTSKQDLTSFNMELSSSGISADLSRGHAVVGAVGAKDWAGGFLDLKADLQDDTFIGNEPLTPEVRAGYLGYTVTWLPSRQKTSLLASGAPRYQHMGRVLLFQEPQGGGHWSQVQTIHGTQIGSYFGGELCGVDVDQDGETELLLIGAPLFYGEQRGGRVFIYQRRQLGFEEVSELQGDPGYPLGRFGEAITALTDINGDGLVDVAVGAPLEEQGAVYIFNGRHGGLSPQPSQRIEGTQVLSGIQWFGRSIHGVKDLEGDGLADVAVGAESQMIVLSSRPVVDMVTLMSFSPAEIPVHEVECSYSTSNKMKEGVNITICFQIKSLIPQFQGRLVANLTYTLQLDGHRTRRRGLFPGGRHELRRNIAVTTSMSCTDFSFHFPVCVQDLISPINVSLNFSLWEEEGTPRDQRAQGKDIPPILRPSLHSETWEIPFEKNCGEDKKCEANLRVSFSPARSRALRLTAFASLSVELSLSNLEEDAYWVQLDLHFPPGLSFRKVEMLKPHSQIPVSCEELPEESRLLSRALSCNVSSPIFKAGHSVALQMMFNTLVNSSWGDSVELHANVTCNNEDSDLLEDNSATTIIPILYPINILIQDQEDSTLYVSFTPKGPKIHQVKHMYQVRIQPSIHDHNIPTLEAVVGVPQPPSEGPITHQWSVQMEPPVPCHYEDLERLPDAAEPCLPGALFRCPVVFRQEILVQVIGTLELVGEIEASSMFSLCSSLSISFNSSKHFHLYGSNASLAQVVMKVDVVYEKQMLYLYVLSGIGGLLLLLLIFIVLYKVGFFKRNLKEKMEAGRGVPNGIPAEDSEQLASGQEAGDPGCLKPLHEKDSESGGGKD
T1 sequence (P05107 23-769): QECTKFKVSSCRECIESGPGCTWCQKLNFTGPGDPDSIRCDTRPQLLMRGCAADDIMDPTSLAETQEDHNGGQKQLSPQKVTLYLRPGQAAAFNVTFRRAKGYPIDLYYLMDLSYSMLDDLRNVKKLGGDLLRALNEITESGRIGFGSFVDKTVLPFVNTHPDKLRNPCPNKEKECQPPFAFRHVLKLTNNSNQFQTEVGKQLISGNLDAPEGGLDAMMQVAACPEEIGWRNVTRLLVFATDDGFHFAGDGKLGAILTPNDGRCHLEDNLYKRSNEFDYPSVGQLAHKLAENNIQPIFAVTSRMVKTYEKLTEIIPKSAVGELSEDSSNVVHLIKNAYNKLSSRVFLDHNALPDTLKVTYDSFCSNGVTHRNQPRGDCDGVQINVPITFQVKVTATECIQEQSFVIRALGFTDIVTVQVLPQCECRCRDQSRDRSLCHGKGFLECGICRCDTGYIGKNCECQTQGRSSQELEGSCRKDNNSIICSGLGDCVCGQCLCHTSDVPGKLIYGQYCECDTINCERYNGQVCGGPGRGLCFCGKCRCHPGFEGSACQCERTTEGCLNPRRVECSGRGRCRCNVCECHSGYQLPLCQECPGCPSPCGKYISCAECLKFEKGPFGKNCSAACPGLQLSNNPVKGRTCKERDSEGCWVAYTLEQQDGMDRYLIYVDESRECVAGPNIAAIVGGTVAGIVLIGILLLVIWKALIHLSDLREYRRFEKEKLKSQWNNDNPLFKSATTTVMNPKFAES
Method: A. In vitro: Cell Free Assay
The assay measures the binding of soluble human ICAM-1 to immobilized human LFA-1. LFA-1 is purified from JY cells, a human lymphoblastoid B cell-line, by immunoaffinity chromatography as described by Dustin et a/. […] ICAM-1 mouse Cκ fusion protein (ICAM-1) is produced using the baculovirus system as described by Weitz-Schmidt et al. (Anal. Biochem.238,184-190, 1996).
Purified LFA-1 is diluted 1:20 in phosphate buffered saline (PBS) containing 2 mM MgCl2, pH 7.4 and coated onto microtitre plates (Nunc) at 37°C for 3h. Plates are blocked with 1% heat-treated BSA in PBS for 2 hours at 37°C followed by a washing step using PBS, 2mM MgCl2, 1% fetal calf serum, pH 7.4 (assay buffer). Compounds dissolved at 10 mM in DMSO are diluted in assay buffer and added to the plates. Biotinylated recombinant ICAM-1 in assay buffer (6 µg/ml) is added and allowed to bind at 37°C for one hour. After incubation, wells are washed with assay buffer. Streptavidin-peroxidase diluted 1:5000 in assay buffer is added and incubated for 45 min at 37 °C. Plates are then washed with assay buffer and 2.2'-azino-bis(3-ethylbenzothiazoiine-6 sulfonic acid) diammonium salt substrate solution is added to each well. The reaction is stopped after 20 min and bound ICAM-1 is determined by measuring the optical density at 405 nm in a microplate reader.

C[C@@H]1CCN([C@H](Cc2cccc3ccccc23)C(N)=O)C(=O)[C@H](c2ccccc2)N1C(=O)Cc1ccc2ncccc2c1 [Example 3, (R)-2-[(3S,5R)-5-Methyl-2-oxo-3-phenyl-4-(quinolin-6-yl-acetyl)-[1,4]diazepan-1-yl)-3-(naphthalen-1-yl)-propionamide]
inhibiting effect ([1]; administered p.o. at a dose of 2 x 3 mg/kg): 40%
inhibiting effect ([1]; applied topically at a dose of 10 mM): 50%
IC50 (LFA-1/ICAM-1): 70 nM
